# Assay results: patent publication US8835134B2, “Cycloastragenol monoglucoside, preparation, pharmaceutical composition and application thereof” (Tianjin Institute of Pharmaceutical Research, priority 2007, dated 2014)
# Test system: anesthetized open-chest dogs
# Assay: Hemodynamics of anesthetized open-chest dogs, intravenous infusion
# Format: in vivo, mongrel dogs
# Description: The animals were anesthetized by intravenous injection of 30 mg/kg sodium pentobarbital, tracheally intubated, and mechanically ventilated with positive air pressure. Left thoracotomy was performed through the fourth intercostal space and the heart was suspended in a pericardial cradle, the aortic root was isolated and a probe of blood flow meter (12 or 14 mm in diameter) was fixed to measure the aortic blood flow as a representation of cardiac output (CO), the circumflex branch of left coronary artery was isolated and a probe of blood flow meter (2 or 2.5 mm in diameter) was fixed to measure the coronary blood flow (CBF). A polyethylene catheter filled with heparin physiological saline was inserted through cardiac apex into the left ventricle to measure the left ventricular pressure (LVP) and left ventricular end-diastolic pressure (LVEDP), Peak positive and peak negative first derivatives of the LVP (+ LVdp/dt and − LVdp/dt) were calculated with the Acknowledge software. The systolic blood pressure (SBP), diastolic blood pressure (DBP) and mean arterial pressure (MAP) were measured by polyethylene catheter via the femoral artery, ECG □ was measured by a AC-601G ECG amplifier. The above-mentioned analog signal was input into a data acquisition workstation (MP100, BIOPAC Systems, USA) to a computer running Acknowledge (version 3.7.1).
# After surgery, various indexes before administration were recorded until the indexes were stable, and then intravenous infusion administration was conducted. Thirty dogs were divided into five groups (six dogs in each group), the experiment groups were given 0.15, 0.3, 0.6 mg/kg of ASP-[…] respectively, the normal control group was given 1 ml/kg of solvent, and the positive control group was given 0.3 mg/kg of astragaloside IV. The delivery volumes were 15 ml for each dog was and the delivery velocity was 1 ml/min. The indexes were recorded at 5, 10, 15, 20, 30, 45, 60, 90 and 120 mins after drug administration. At the end of experiment, the hearts were excised and weighted. The myocardial blood flow for per hectogram (CF), coronary resistance (CR), cardiac index (CI), left ventricular work (LVW) and total peripheral resistance (TPR) were calculated according to the following formulae: CF=CBF×[…]/heart weight CR=MAP/CF CI=CO/0.11×(body weight)^2/3 LVW=CO×(MAP−5)×1.052×0.0136 TPR=MAP×79.92/CO
# Data are expressed as mean±SD ( x±s), the paired t-test was used to compare the significance between before and after administration, the unpaired t-test was adopted for comparison between groups.
# [1] = 0.6 mg/kg iv, 60 min after administration
# [2] = 0.6 mg/kg iv, 90 min after administration
# [3] = 0.6 mg/kg iv, 120 min after administration
# [4] = 0.6 mg/kg iv, before administration
# [5] = 0.15, 0.3 and 0.6 mg/kg iv, within 120 min
smiles,measurement,setting,value
"CC(C)(O)[C@@H]1CC[C@](C)([C@H]2[C@@H](O)C[C@@]3(C)C4C[C@H](OC5OC(CO)C(O)C(O)C5O)C5C(C)(C)[C@@H](O)CC[C@@]56C[C@@]46CC[C@]23C)O1 (stereo partly drawn) [CMG, Cycloastragenol-6-O-β-D-glucoside]",CR,[1],1.53 ± 0.47 mmHg/ml/min/100 g
same,CR change vs before administration,[1],(0.11 ± 0.26) mmHg/ml/min/100 g
same,LVEDP,[1],1.6 ± 1.6 mmHg
same,LVEDP change vs before administration,[1],(−1.05 ± 0.76) mmHg
same,LVP,[1],105 ± 14 mmHg
same,LVP change vs before administration,[1],(−0.8 ± 7.7) mmHg
same,LVW,[1],1.17 ± 0.40 kg · m
same,LVW change vs before administration,[1],(0.10 ± 0.20) kg · m
same,TPR,[1],5170 ± 1416 dyn · s/cm^5
same,TPR change vs before administration,[1],(−336 ± 1012) dyn · s/cm^5
same,dp/dt,[1],1199 ± 294 mmHg/s
same,dp/dt change vs before administration,[1],(95 ± 76) mmHg/s
same,−dp/dt,[1],−829 ± 157 mmHg/s
same,−dp/dt change vs before administration,[1],(24 ± 167) mmHg/s
same,CF,[2],48.6 ± 7.2 ml/min/100 g
same,CF change vs before administration,[2],(−2.6 ± 2.8) ml/min/100 g
same,CI,[2],2.09 ± 0.53 L/min/m^2
same,CI change vs before administration,[2],(0.13 ± 0.20) L/min/m^2
same,CO,[2],1.22 ± 0.40 L/min
same,CO change vs before administration,[2],(0.07 ± 0.12) L/min
same,CR,[2],1.52 ± 0.37 mmHg/ml/min/100 g
same,CR change vs before administration,[2],(0.11 ± 0.12) mmHg/ml/min/100 g
same,LVEDP,[2],1.3 ± 1.4 mmHg
same,LVEDP change vs before administration,[2],(−1.35 ± 0.72) mmHg
same,LVP,[2],105 ± 12 mmHg
same,LVP change vs before administration,[2],(−1.3 ± 6.7) mmHg
same,LVW,[2],1.17 ± 0.44 kg · m
same,LVW change vs before administration,[2],(0.10 ± 0.11) kg · m
same,TPR,[2],5285 ± 2431 dyn · s/cm^5
same,TPR change vs before administration,[2],(−222 ± 606) dyn · s/cm^5
same,dp/dt,[2],1152 ± 313 mmHg/s
same,dp/dt change vs before administration,[2],(48 ± 63) mmHg/s
same,−dp/dt,[2],−815 ± 238 mmHg/s
same,−dp/dt change vs before administration,[2],(37 ± 55) mmHg/s
same,CF,[3],49.3 ± 7.3 ml/min/100 g
same,CF change vs before administration,[3],(−1.9 ± 5.0) ml/min/100 g
same,CI,[3],2.07 ± 0.47 L/min/m^2
same,CI change vs before administration,[3],(0.11 ± 0.22) L/min/m^2
same,CO,[3],1.21 ± 0.38 L/min
same,CO change vs before administration,[3],(0.06 ± 0.13) L/min
same,CR,[3],1.42 ± 0.27 mmHg/ml/min/100 g
same,CR change vs before administration,[3],(0.00 ± 0.17) mmHg/ml/min/100 g
same,LVEDP,[3],2.0 ± 1.2 mmHg
same,LVEDP change vs before administration,[3],(−0.73 ± 0.52) mmHg
same,LVP,[3],102 ± 17 mmHg
same,LVP change vs before administration,[3],(−4.4 ± 5.9) mmHg
same,LVW,[3],1.12 ± 0.42 kg · m
same,LVW change vs before administration,[3],(0.04 ± 0.18) kg · m
same,TPR,[3],4925 ± 1674 dyn · s/cm^5
same,TPR change vs before administration,[3],(−582 ± 764) dyn · s/cm^5
same,dp/dt,[3],1078 ± 283 mmHg/s
same,dp/dt change vs before administration,[3],(−25 ± 109) mmHg/s
same,−dp/dt,[3],−789 ± 269 mmHg/s
same,−dp/dt change vs before administration,[3],(64 ± 63) mmHg/s
same,+LVdp/dtmax maximum increase,"0.6 mg/kg iv, at 5-10 min after administration",22.6±11.8%
same,CF,[4],51.2 ± 8.0 ml/min/100 g
same,CI,[4],1.96 ± 0.54 L/min/m^2
same,CO,[4],1.15 ± 0.40 L/min
same,CR,[4],1.41 ± 0.35 mmHg/ml/min/100 g
same,LVEDP,[4],2.7 ± 1.3 mmHg
same,LVP,[4],106 ± 16 mmHg
same,LVW,[4],1.08 ± 0.41 kg · m
same,TPR,[4],5507 ± 2267 dyn · s/cm^5
same,dp/dt,[4],1104 ± 295 mmHg/s
same,−dp/dt,[4],−852 ± 244 mmHg/s
same,duration of LVEDP decrease,"0.15, 0.3 and 0.6 mg/kg iv",more than 2 hours
same,left ventricular work (LVW),"0.15, 0.3 and 0.6 mg/kg iv",no significant change
same,CF and CR,[5],no significant changes
same,CO and CI,[5],no significant changes
same,"SBP, DBP, MAP and HR",[5],no significant changes
same,left ventricular pressure (LVP),[5],no significant change
same,total peripheral resistance (TPR),[5],no significant change
same,−LVdp/dtmax,0.3 and 0.6 mg/kg iv,no significant effect
